Results on 89 compounds are retold here after ChEMBL document CHEMBL2449286, “Structure-activity data for a series of P-glycoprotein inhibitors (Supplementary Data to CHEMBL1142990)”.

For orientation: EC50 means the concentration needed to bring the measured effect to its halfway point.

The test deals with ATP-dependent translocase ABCB1 (Homo sapiens, UniProt P08183).
Sequence of ATP-dependent translocase ABCB1 (P08183 whole entry): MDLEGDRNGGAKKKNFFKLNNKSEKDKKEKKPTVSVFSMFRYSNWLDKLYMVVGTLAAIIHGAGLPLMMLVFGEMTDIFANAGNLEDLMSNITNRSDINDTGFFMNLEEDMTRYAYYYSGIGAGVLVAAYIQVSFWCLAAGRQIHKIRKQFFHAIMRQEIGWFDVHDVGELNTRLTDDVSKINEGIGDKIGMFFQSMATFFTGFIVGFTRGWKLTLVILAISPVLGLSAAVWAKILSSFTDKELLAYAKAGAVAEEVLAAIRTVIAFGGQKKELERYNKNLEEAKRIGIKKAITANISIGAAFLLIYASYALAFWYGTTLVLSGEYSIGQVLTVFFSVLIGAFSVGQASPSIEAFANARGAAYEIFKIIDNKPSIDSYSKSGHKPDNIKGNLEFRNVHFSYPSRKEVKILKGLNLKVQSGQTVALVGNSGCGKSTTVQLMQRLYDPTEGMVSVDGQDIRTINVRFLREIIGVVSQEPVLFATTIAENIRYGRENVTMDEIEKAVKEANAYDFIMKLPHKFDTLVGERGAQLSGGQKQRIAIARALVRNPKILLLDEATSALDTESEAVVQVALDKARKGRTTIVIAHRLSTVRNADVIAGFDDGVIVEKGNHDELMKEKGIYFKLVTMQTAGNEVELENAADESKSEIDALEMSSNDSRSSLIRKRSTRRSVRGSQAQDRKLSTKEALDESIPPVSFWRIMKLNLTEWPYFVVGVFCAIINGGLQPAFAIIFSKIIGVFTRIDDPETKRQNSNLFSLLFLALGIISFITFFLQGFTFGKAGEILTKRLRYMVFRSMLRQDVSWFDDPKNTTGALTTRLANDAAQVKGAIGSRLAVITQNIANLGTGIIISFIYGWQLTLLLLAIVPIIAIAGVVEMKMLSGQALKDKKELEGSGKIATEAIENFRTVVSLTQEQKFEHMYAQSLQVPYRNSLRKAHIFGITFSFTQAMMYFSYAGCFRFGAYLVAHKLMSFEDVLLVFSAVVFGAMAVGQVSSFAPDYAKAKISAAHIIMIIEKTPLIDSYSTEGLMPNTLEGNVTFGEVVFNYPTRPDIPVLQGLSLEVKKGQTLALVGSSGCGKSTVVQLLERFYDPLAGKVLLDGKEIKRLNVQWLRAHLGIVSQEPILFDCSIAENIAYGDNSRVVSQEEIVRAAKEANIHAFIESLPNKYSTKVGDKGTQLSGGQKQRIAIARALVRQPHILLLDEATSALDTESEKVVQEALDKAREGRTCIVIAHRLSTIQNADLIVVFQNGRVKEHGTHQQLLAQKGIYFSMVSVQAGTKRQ

In the case of `O=C(CCc1ccccc1)c1ccccc1OC[C@H](O)CN1CCC(Cc2ccccc2)CC1`, the EC50 is 0.257 µM.

Take `O[C@H](COc1ccccc1[C@@H](O)CCc1ccccc1)CN1CCCCC1`: the EC50 is 1.7 µM.

For the compound `O[C@@H](COc1ccccc1[C@@H](O)CCc1ccccc1)CN1CCCCC1`, the EC50 is 0.871 µM. This EC50 is about 2-fold lower than that of the compound before.

Consider `O[C@H](COc1ccccc1[C@H](O)CCc1ccccc1)CN1CCCCC1`, for which the EC50 was 1.51 µM.

`O[C@@H](COc1ccccc1[C@H](O)CCc1ccccc1)CN1CCCCC1` showed an EC50 of 0.851 µM.

Regarding `OC(CN1CCCCC1)C1Oc2ccccc2C1CCc1ccccc1` (centres undefined), the response was half-maximal at 0.646 µM (EC50). This EC50 and that of the compound before are within 1.5-fold of each other.

For `CC(C)[C@@H](CCl)N(C)[C@@H]1C2C=C(C#N)C=CC2OC(C)(C)[C@H]1O` (some centres undefined), the response was half-maximal at 2.24 µM (EC50).

As to `O=C(CCc1cccc2ccccc12)c1cccc(OCC(O)CN2CCN(c3ccc(F)cc3)CC2)c1` (centres undefined), a half-maximal response (EC50) required 0.158 µM. This EC50 lies about 14-fold lower than the previous one.

`Cc1ccccc1N1CCN(CC(O)COc2cccc(C(=O)CCc3cccc4ccccc34)c2)CC1` (centres undefined): the EC50 stood at 0.0708 µM.

`CNC1c2cc(C#N)ccc2OC(C)(C)C1O` (centres undefined) showed a concentration for a half-maximal effect (EC50) of 776 µM.

As to `CC1(C)Oc2ccc(C#N)cc2C(NCc2ccccc2)C1O` (centres undefined), the EC50 was 75.9 µM.

In turn, `CN[C@@H]1c2cc(C#N)ccc2OC(C)(C)[C@H]1O` showed an EC50 of 1700 µM.

`CC1(C)Oc2ccc(C#N)cc2[C@@H](NCc2ccccc2)[C@@H]1O` gave a half-maximal effective concentration (EC50) of 58.9 µM.

Regarding `CC(C)[C@@H](N[C@H]1c2ccccc2OC(C)(C)[C@@H]1O)C(=O)OC(C)(C)C`, the 50% effective concentration (EC50) was 1.35 µM.

The compound `CC(C)[C@@H](N[C@@H]1c2cc(C#N)ccc2OC(C)(C)[C@H]1O)C(=O)OC(C)(C)C` gave an EC50 of 4.68 µM.

Turning to `CC(C)[C@@H](C(=O)OC(C)(C)C)N(C)[C@@H]1c2cc(C#N)ccc2OC(C)(C)[C@H]1O`, the EC50 was 0.955 µM.

Regarding `CC(C)[C@@H](C(=O)OC(C)(C)C)N(C)[C@H]1c2cc(C#N)ccc2OC(C)(C)[C@@H]1O`, it took 1.35 µM to reach a half-maximal effect (EC50).

The compound `CC(C)[C@H](C(=O)OC(C)(C)C)N(C)[C@@H]1c2cc(C#N)ccc2OC(C)(C)[C@H]1O` gave an EC50 of 1 µM.

Turning to `CC(NC1c2cc(C#N)ccc2OC(C)(C)C1O)C(=O)OC(C)(C)C` (centres undefined), the EC50 was 29.5 µM.

Take `C[C@H](N[C@H]1c2cc(C#N)ccc2OC(C)(C)[C@@H]1O)C(=O)OC(C)(C)C`: a half-maximal response (EC50) required 14.5 µM.

Regarding `C[C@@H](C(=O)OC(C)(C)C)N(C)[C@H]1c2cc(C#N)ccc2OC(C)(C)[C@@H]1O`, the concentration giving a half-maximal response (EC50) is 3.72 µM.

Take `C[C@@H](C(=O)OC(C)(C)C)N(C)[C@@H]1c2cc(C#N)ccc2OC(C)(C)[C@H]1O`: the EC50 was 3.98 µM. The EC50 values of the last two compounds are within 1.5-fold of each other.

On to `CC(C)[C@@H]1N[C@@H]2c3cc(C#N)ccc3OC(C)(C)[C@H]2OC1=O`, for which the midpoint of the response, the EC50, lay at 15.5 µM.

As to `CC(C)[C@@H]1N[C@H]2c3cc(C#N)ccc3OC(C)(C)[C@@H]2OC1=O`, the EC50 was 58.9 µM. This EC50 lies about 3.8-fold higher than the previous one.

`CC(C)[C@H]1N[C@H]2c3cc(C#N)ccc3OC(C)(C)[C@@H]2OC1=O` gave an EC50 of 9.55 µM.

As for `C[C@@H]1N[C@H]2c3cc(C#N)ccc3OC(C)(C)[C@@H]2OC1=O`, the concentration for a half-maximal effect (EC50) is 77.6 µM.

`C[C@H]1C(=O)O[C@@H]2[C@H](c3cc(C#N)ccc3OC2(C)C)N1C` gave an EC50 of 28.8 µM. Against the preceding compound, the EC50 is about 2.7-fold lower.

Turning to `C[C@@H]1N[C@@H]2c3cc(C#N)ccc3OC(C)(C)[C@H]2OC1=O`, it took 1230 µM to reach a half-maximal effect (EC50).

Compound `C[C@H]1C(=O)O[C@H]2[C@@H](c3cc(C#N)ccc3OC2(C)C)N1C` had an EC50 of 47.9 µM.

As for `CC(C)[C@H]1C(=O)O[C@H]2[C@@H](c3cc(C#N)ccc3OC2(C)C)N1C`, the half-maximal effective concentration (EC50) was 47.9 µM.

In turn, `CC(C)[C@@H]1C(=O)O[C@H]2[C@@H](c3cc(C#N)ccc3OC2(C)C)N1C` gave a half-maximal effective concentration (EC50) of 79.4 µM.

In the case of `CC(C)[C@@H]1C(=O)O[C@@H]2[C@H](c3cc(C#N)ccc3OC2(C)C)N1C`, the EC50 is 27.5 µM.

Regarding `CC(C)[C@H]1C(=O)O[C@@H]2[C@H](c3cc(C#N)ccc3OC2(C)C)N1C`, the response was half-maximal at 16.6 µM (EC50).

As to `CC(C)(C)OC(=O)C(Cc1ccccc1)N[C@H]1c2cc(C#N)ccc2OC(C)(C)[C@@H]1O` (some centres undefined), the EC50 is 0.776 µM.

On to `CC(C)(C)OC(=O)C(Cc1ccccc1)N[C@@H]1c2cc(C#N)ccc2OC(C)(C)[C@H]1O` (some centres undefined), for which the EC50 is 0.55 µM.

With `CC1(C)Oc2ccc(C#N)cc2[C@@H]2NC(Cc3ccccc3)C(=O)O[C@H]21` (some centres undefined), the EC50 is 257 µM.

The compound `CC1(C)Oc2ccc(C#N)cc2[C@H]2N[C@@H](Cc3ccccc3)C(=O)O[C@@H]21` gave an EC50 of 2.69 µM.

`CC(C)[C@@H](CO)N[C@H]1c2cc(C#N)ccc2OC(C)(C)[C@@H]1O` gave an EC50 of 102 µM.

In the case of `CC(C)[C@@H](CO)N[C@@H]1c2cc(C#N)ccc2OC(C)(C)[C@H]1O`, the EC50 is 53.7 µM. This EC50 lies about 1.9-fold lower than the previous one.

`CC(C)[C@@H](CO)N(C)[C@@H]1c2cc(C#N)ccc2OC(C)(C)[C@H]1O` showed an EC50 of 5.5 µM. Against the preceding compound, the EC50 is about 9.8-fold lower.

In turn, `CC(C)C(CO)N(C)[C@H]1c2cc(C#N)ccc2OC(C)(C)[C@@H]1O` (some centres undefined) gave a concentration giving a half-maximal response (EC50) of 6.92 µM. The EC50 values of the last two compounds are within 1.5-fold of each other.

Regarding `CC(C)[C@@H](CCl)N(C)[C@@H]1c2cc(C#N)ccc2OC(C)(C)[C@H]1O`, the EC50 is 35.5 µM.

In turn, `CC(C)[C@@H](CCl)N(C)[C@H]1c2cc(C#N)ccc2OC(C)(C)[C@@H]1O` gave an EC50 of 44.7 µM.

Regarding `CC(C)[C@H](N[C@H]1c2cc(C#N)ccc2OC(C)(C)[C@@H]1O)C(=O)O`, a half-maximal effect (EC50) was put at 2.69 µM.

Take `CC(C)[C@H](N[C@@H]1c2cc(C#N)ccc2OC(C)(C)[C@H]1O)C(=O)O`: a half-maximal response (EC50) required 4.79 µM.

The compound `C[C@H](N[C@@H]1c2cc(C#N)ccc2OC(C)(C)[C@H]1O)C(=O)OC(C)(C)C` had an EC50 of 45.7 µM.

In turn, `CCN(CC)C[C@@H](O)COc1ccccc1C(=O)CCc1ccccc1` gave an EC50 of 0.912 µM.

`O=C(CCc1ccccc1)c1ccccc1OC[C@H](O)CN1CCCCC1`: the EC50 was 0.603 µM.

Regarding `CC(C)N(C[C@@H](O)COc1ccccc1C(=O)CCc1ccccc1)C(C)C`, the EC50 was 0.38 µM.

In turn, `CCC(=O)c1ccccc1OC[C@H](O)CN1CCCCC1` showed an EC50 of 14.5 µM.

Turning to `CC(=O)c1ccccc1OC[C@H](O)CN1CCCCC1`, it took 31.6 µM to reach a half-maximal effect (EC50).

As to `O=C(CCc1ccccc1)c1ccccc1OC[C@H](O)CN1CCN(c2ccccc2)CC1`, the EC50 was found to be 0.617 µM.

`COc1ccccc1N1CCN(C[C@@H](O)COc2ccccc2C(=O)CCc2ccccc2)CC1` had a concentration for a half-maximal effect (EC50) of 0.229 µM.

Compound `COc1cccc(N2CCN(C[C@@H](O)COc3ccccc3C(=O)CCc3ccccc3)CC2)c1` showed an EC50 of 0.676 µM.

Compound `COc1ccc(N2CCN(C[C@@H](O)COc3ccccc3C(=O)CCc3ccccc3)CC2)cc1` had an EC50 of 0.257 µM.

Regarding `Cc1ccccc1N1CCN(C[C@@H](O)COc2ccccc2C(=O)CCc2ccccc2)CC1`, the midpoint of the response, the EC50, lay at 0.0269 µM.

The compound `O=C(CCc1ccccc1)c1ccccc1OC[C@H](O)CN1CCN(Cc2ccccc2)CC1` had an EC50 of 0.661 µM.

For the compound `O=C(CCc1ccccc1)c1ccccc1OC[C@H](O)CN1CCN(c2ccc(F)cc2)CC1`, a half-maximal response (EC50) required 0.0708 µM.

`CCC(=O)c1ccccc1OC[C@H](O)CN1CCOCC1` gave an EC50 of 209 µM.

Compound `CN(C)C[C@@H](O)COc1ccccc1C(=O)CCc1ccccc1` gave an EC50 of 2.45 µM.

Take `CC(=O)c1ccccc1OC[C@H](O)CN1CCOCC1`: the midpoint of the response, the EC50, lay at 67.6 µM.

`CCCN(C)C[C@@H](O)COc1ccccc1C(=O)CCc1ccccc1` had a 50% effective concentration (EC50) of 0.417 µM.

`CCN(CC)C[C@@H](O)COc1ccccc1C(=O)c1ccccc1` had an EC50 of 2.34 µM. This EC50 lies about 5.6-fold higher than the previous one.

Consider `O=C(/C=C/c1ccccc1)c1ccccc1OC[C@H](O)CN1CCCCC1`, for which a half-maximal effect (EC50) was put at 0.316 µM.

`O=C(CCc1ccccc1)c1ccccc1OC[C@H](O)CN1CCOCC1` gave an EC50 of 3.63 µM.

`O=C(CCc1ccccc1)c1ccccc1OC[C@H](O)CN1CCC(O)(c2ccccc2)CC1` gave an EC50 of 0.0575 µM.

`O=C(CCc1ccccc1)c1ccc(OC[C@H](O)CN2CCCCC2)cc1`: a half-maximal effect (EC50) was put at 0.977 µM. Against the preceding compound, the EC50 is about 17-fold higher.

For the compound `CO[C@H](CCc1ccccc1)c1ccccc1OC[C@H](O)CN1CCCCC1`, the EC50 was 0.174 µM.

As for `CCCNC[C@@H](O)c1oc2ccccc2c1CC`, the EC50 is 11.5 µM.

Take `COc1ccccc1N1CCN(C[C@@H](O)c2oc3ccccc3c2CCc2ccccc2)CC1`: the response was half-maximal at 0.178 µM (EC50). This EC50 is about 65-fold lower than that of the compound before.

With `CCCNC[C@@H](O)COc1ccc(O)cc1C(=O)CCc1ccccc1`, the half-maximal effective concentration (EC50) is 3.02 µM.

With `O=C(CCc1ccccc1)c1ccc(OC[C@H](O)CN2CCN(c3ccc(F)cc3)CC2)cc1`, the EC50 was 2.51 µM.

Regarding `O=C(CCc1ccccc1)c1cccc(OC[C@H](O)CN2CCCCC2)c1`, a half-maximal response (EC50) required 0.427 µM.

In the case of `O=C(CCc1ccccc1)c1ccc(OC[C@H](O)CN2CCOCC2)cc1`, the EC50 is 6.92 µM.

Turning to `O[C@@H](COc1ccccc1[C@H](O)CCc1ccccc1)CN1CCN(c2ccc(F)cc2)CC1`, the midpoint of the response, the EC50, lay at 0.676 µM.

Turning to `CO[C@H](CCc1ccccc1)c1ccccc1OC[C@H](O)CN1CCN(c2ccc(F)cc2)CC1`, the midpoint of the response, the EC50, lay at 0.224 µM.

As for `O=C(CCc1ccccc1)c1cccc(OC[C@H](O)CN2CCN(c3ccc(F)cc3)CC2)c1`, the EC50 was 1.12 µM.

On to `CC(C)N(C[C@@H](O)COc1ccc(C(=O)CCc2ccccc2)cc1)C(C)C`, for which the EC50 was 0.912 µM. The EC50 values of the last two compounds are within 1.5-fold of each other.

`CC(C)N(C[C@@H](O)COc1ccccc1[C@H](O)CCc1ccccc1)C(C)C` gave an EC50 of 1.74 µM.

In the case of `CO[C@H](CCc1ccccc1)c1ccccc1OC[C@H](O)CN(C(C)C)C(C)C`, the response was half-maximal at 0.661 µM (EC50).

In turn, `O=C(CCc1cccc2ccccc12)c1ccccc1OC[C@H](O)CN1CCCCC1` showed an EC50 of 0.174 µM.

Take `O=C(CCc1ccccc1)c1ccccc1OC[C@H](O)CNCC(c1ccccc1)c1ccccc1`: the response was half-maximal at 0.794 µM (EC50).

For `O=C(CCc1ccccc1)c1ccccc1OC[C@H](O)CNC(c1ccccc1)c1ccccc1`, the EC50 is 10.5 µM. Against the preceding compound, the EC50 is about 13-fold higher.

In the case of `O=C(CCc1cccc2ccccc12)c1ccccc1OC[C@H](O)CNCCC(c1ccccc1)c1ccccc1`, the EC50 was 0.724 µM.

As to `CO[C@H](CCc1ccccc1)c1ccccc1OC[C@H](O)CNCCC(c1ccccc1)c1ccccc1`, the EC50 is 0.759 µM.

In turn, `O[C@@H](COc1ccccc1[C@H](O)CCc1ccccc1)CN1CCOCC1` had an EC50 of 9.55 µM.

The compound `CO[C@H](CCc1ccccc1)c1ccccc1OC[C@H](O)CN1CCOCC1` showed an EC50 of 1.82 µM.

For `CN[C@H]1c2cc(C#N)ccc2OC(C)(C)[C@@H]1O`, it took 309 µM to reach a half-maximal effect (EC50).

The compound `CC1(C)Oc2ccc(C#N)cc2[C@H](NCc2ccccc2)[C@H]1O` showed an EC50 of 35.5 µM.
